In patent US8530508B2, “Thrombopoietin receptor agonist (TpoRA) kills acute human myeloid leukemia cells” (GlaxoSmithKline LLC, priority 2007, dated 2013):

Experiments:
[1] = system: primary cells from AML patient 774; assay: Annexin V / propidium iodide apoptosis assay, primary AML cells; type: cell-based, human; conditions: AML patient 774, 72 hours; vs control and Tpo+DMSO
Description: (§1) Annexin-V is a phospholipid binding protein with a high affinity for phosphatidylserine (PS). Annexin V will not bind normal, intact cells, but necrotic cells are leaky enough to give Annexin V access to inner membrane PS. Propidium iodide stains DNA. The assay therefore identifies cells undergoing apoptosis.
(§2) Primary cells were isolated from either an AML (patient 774; top row) or ALL (patient 710; bottom row) patient. The cells were then exposed to either control solution (left pair of panels), rhTpo+DMSO (middle pair of panels), or SB559457 (right pair of panels) for 72 hours.

[2] = system: STAT5, ERK, p70S6, S6 ribosomal protein in human progenitor cells CD34+; assay: Western blot analysis of kinase phosphorylation in CD34+ cells; type: cell-based; conditions: rhTPO 2.8 μM or Compound A 5 μM
Method: (§3) Controls and cells stimulated with rhTPO or Compound A were washed twice in PBS, then pelleted. The pellet was dissolved in triple-lysis buffer comprised of 50 mM TRIS, 150 mM NaCl, 0.02% sodium azide, 0.1% sodium dodecyl sulphate (SDS) and 1% Igepal (Sigma, St. Louis, Mo.), and then incubated for 30 min on ice with vortexing every 10 min. The lysate was then spun at maximum speed in a microcentrifuge at 4° C. for 10 min. The extracted cell supernatant was used for Western-blot analysis.
(§4) Protein concentration was determined by a Bradford protein assay (Bio-Rad, Hercules, Calif.). A total of 150 μg protein extract was resolved on a 10% polyacrylamide gel (150V, 60 min.) then transferred to a poly vinylidene fluoride (PVDF) membrane (25V, 60 min). Condensed milk (5%) was used as a blocking solution. The membrane was incubated overnight at 4° C. with primary antibody at a 1:1000 dilution. After incubation, the membrane was washed three times in TBS-T buffer and probed with secondary HRP-conjugated antibody (Amersham Biosciences; Piscataway, N.J.) at dilution 1:1000 for 2 hour at room temperature. All antibodies were purchased from Cell Signaling Technology (Danvers, Mass.).
The effect of Compound A on phosphorylation of kinases known to be important in the Tpo signaling pathway was examined. Kinases evaluated include STAT5, ERK, p70S6, and ribosomal kinase S6. […] The same experiment was performed on human progenitor cells CD34+, which are stimulated by Compound A to differentiate into the megakaryocytes.

[3] = system: cells obtained from AML patients; assay: Rescue proliferation assay: rhTPO plus Compound A on AML cells; type: cell-based, human
Method: Proliferation assays were performed on cells obtained from 6 AML patients. In some experiments, cells were first exposed to Compound A and then stimulated with rhTPO five minutes later. To avoid the possibility of all receptors being occupied by Compound A and therefore preventing rhTPO from binding, other experiments were also performed by first stimulating the cells with rhTPO followed by exposure to Compound A 5 minutes later.

[4] = system: primary cells from ALL patient 710; assay: Annexin V / propidium iodide apoptosis assay, primary ALL cells; type: cell-based, human; conditions: ALL patient 710, 72 hours
Description: as §1, §2

[5] = system: primary leukemia cells from patients with acute myelogenous leukemia (AML); assay: Proliferation of primary AML cells; type: cell-based, human
Method: (§5) Human primary leukemia cells were obtained from Stem Cell and Leukemia Core at the University of Pennsylvania. Cells were cultured in EGM-2 (Endothelial Cell Medium-2, Cambrex; East Rutherford, N.J.). All cells were cultured in humidified incubator at 37° C. and 5% CO2.
(§6) Samples were obtained from 18 patients with acute myelogenous leukemia (AML), 7 patients with acute lymphocytic leukemia (ALL) and 3 patients with chronic myelogenous leukemia (CML). In 17 out of 18 tested AML samples, Compound A inhibited cell proliferation 70-90% when compared to untreated controls or cells cultured with rhTPO (FIG. 2A).
Further the effect of various doses of Compound A (1 μM, 2.5 μM and 5 μM) on AML samples was examined. This experiment was performed on 6 different samples. […] In the remaining 3 samples, doses of 1 μM and 2.5 μM Compound A had no effect on cell proliferation and survival.

[6] = system: STAT5, ERK, p70S6, ribosomal kinase S6 in N2C-TPO cells; assay: Western blot analysis of kinase phosphorylation in N2C-TPO cells; type: cell-based; conditions: 10 or 30 minutes
Method: as §3, §4
The effect of Compound A on phosphorylation of kinases known to be important in the Tpo signaling pathway was examined. Kinases evaluated include STAT5, ERK, p70S6, and ribosomal kinase S6. […]

[7] = system: primary cells from patients with acute lymphocytic leukemia (ALL); assay: Proliferation of primary ALL cells; type: cell-based, human; conditions: ALL patient samples
Method: as §5, §6

[8] = system: human CD34+ cells; assay: Megakaryocyte colony forming assay; type: cell-based; conditions: Compound A 5 μM vs rhTPO 100 ng/ml; fibrin clots, 10 days, CD41 stain
Method: Normal human progenitor cells were plated in fibrinogen clots at a density of 5000 CD34+ cells per ml. Fibrinogen clots were prepared as follow: cells were re-suspended in IMDM medium supplemented with sodium bicarbonate (3 mg/ml); 3-mercapto-1-2propanediol (0.002%); transferring (300 μg/ml); CaCl2(37 μg/ml); fatty acid free, deionized BSA (10%); insulin (20 μg/ml); cholesterol (5.6 μg/ml) cytokines: IL-3 (10 ng/ml), SCF (10 ng/ml) and rhTPO (100 ng/ml equal 2.8 μM) or Compound A (5 μM). Then clotting mix containing fibrinogen (0.2%) and thrombin (0.2 u/ml). Cells were plated on 35 mm culture dishes and cultured in humidified incubator at 37° C. and 5% CO2. After 10 days, colonies were fixed and stained for megakaryocyte marker CD41a with fluorescently labeled antibody. Megakaryocyte colonies were counted using inverted fluorescent microscope.
Normal human progenitor cells (CD34+) were used to evaluate capability of Compound A to stimulate proliferation and differentiation of megakaryocytes. CD34+ cells were plated in fibrin clots and cultured for 10 days, after which time colonies were fixed and stained with antibody specific for megakaryocytic marker CD41. […]

[9] = system: CD34+ cells; assay: Liquid culture of human progenitor cells (polyploidization, CD41/CD61 expression); type: cell-based; conditions: CD34+ cells in cytokines, 7-10 days
Method: Normal human progenitor cells (CD34+) were used to evaluate capability of Compound A to stimulate proliferation and differentiation of megakaryocytes. CD34+ cells were plated in fibrin clots and cultured for 10 days, after which time colonies were fixed and stained with antibody specific for megakaryocytic marker CD41. […] CD34+ cells were incubated in cytokines with rhTPO or Compound A for periods of 7-10 days, after which time cells in culture were examined for degree of polyploidization, and expression of megakaryocyte lineage markers CD41 and CD61.

[10] = system: primary cells from patients with chronic myelogenous leukemia (CML); assay: Proliferation of primary CML cells; type: cell-based, human; conditions: CML patient samples
Method: as §5, §6

[11] = system: STAT5, ERK, p70S6 kinases and S6 ribosomal protein in N2C-TPO cells; assay: Rescue of kinase phosphorylation in N2C-TPO cells (rhTPO plus Compound A); type: cell-based; conditions: rhTPO first then Compound A, or the reverse
Method: as §3, §4
In an effort to address these possibilities, similar rescue experiments were performed on N2C-TPO cells while evaluating phosphorylation of kinases involved in TPO pathway.

[12] = system: N2C-TPO cells; assay: Proliferation of TPO dependent cell line N2C-TPO; type: cell-based
Method: N2C-TPO cells were derived by culture of a megakaryblastic cell line in rhTpo for 10 weeks and provided by Glaxo SmithKline Pharmaceuticals (Collegeville, Pa.). N2C-TPO cells were cultured in RPMI (Invitrogen, Carlsbad, Calif.) medium supplemented with 10% Animal Serum Complex—Fetalplex (Gemini Bio-Products, West Sacramento, Calif.), 0.5% Penicillin/Streptomycin (Invitrogen; Carlsbad, Calif.) and 20 ng/ml rhTPO.
In order to determine if Compound A has the ability to function as a thrombopoietin receptor (TpoR) agonist and stimulate proliferation and differentiation of human megakaryocytes, a number of cell culture experiments were performed using the Tpo dependent cell line (N2C-TPO) as well as normal human CD34+ cells. […] Consequently the 5 μM dose was used in further experiments where properties of rhTPO versus Compound A were directly compared.

[13] = system: p70S6 kinase and ribosomal kinase S6 in primary AML cells; assay: Western blot of p70S6 and S6 kinase phosphorylation in primary AML cells; type: cell-based, human; conditions: primary AML samples, 3 hours; SB559457 5 μM, Tpo 2.86 μM
Method: as §3, §4
In an effort to establish a correlation between cell signaling and array data, phosphorylation of kinases involved in Tpo signaling pathway in primary leukemia cells was examined. […]

[14] = system: GAPDH and Redd1 mRNA in primary AML cells; assay: Quantitative real time PCR of GAPDH and Redd1 in primary AML cells; type: cell-based, human; conditions: primary AML samples, 6 hours, QRT-PCR

Compound | Annexin V and PI positive cells (apoptosis) [1] | ERK, p70S6 and S6 ribosomal protein phosphorylation [2] | phosphorylation of STAT5 [2] | rescue of AML cell survival by rhTPO ([3]; samples 794 and 332, rhTPO added with Compound A) | rescue of AML cell survival by rhTPO ([3]; samples 857, 774, 759, 342, rhTPO added 5 minutes before or after Compound A) | cellular apoptosis [4] | effect on cell proliferation and survival ([5]; 1 μM and 2.5 μM, remaining 3 of 6 AML samples) | leukemia cell growth and proliferation ([5]; 5 μM, remaining 3 of 6 AML samples) | effect on cell proliferation ([5]; 1 and 2.5 μM, 3 of 6 AML samples) | inhibition of cell proliferation ([5]; 17 out of 18 AML samples, vs untreated controls or cells cultured with rhTPO) | phosphorylation of STAT5, ERK, p70S6 and ribosomal kinase S6 [6] | effect on cell proliferation / growth or viability [7] | number of megakaryocyte colonies compared to rhTPO [8] | cells expressing megakaryocyte markers CD41 and CD61 [9] [%] | cells with greater than 4N DNA content [9] [%] | effect on cell proliferation / growth or viability [10] | phosphorylation of STAT5, ERK, p70S6 kinases and S6 ribosomal protein with rhTPO plus Compound A [11] | concentration of maximal effects on cell proliferation [12] [µM] | phosphorylation of p70S6 kinase at Thr421/Ser424 and ribosomal kinase S6 [13] | expression of GAPDH relative to cells treated with rhTpo [14]
CC1=NN(c2ccc(C)c(C)c2)C(=O)/C1=N\Nc1cc(F)cc(-c2cccc(C(=O)O)c2)c1O [Compound A, 3′-{N′-[1-(3,4-dimethylphenyl)-3-methyl-5-oxo-1,5-dihydropyrazol-4-ylidene]hydrazine}-5′-fluoro-2′-hydroxybiphenyl-3-carboxylic acid] | increase in Annexin V and PI positive cells | activation | only cells exposed to rhTPO | adding rhTPO did attenuate the Compound A effect | not rescued | No significant increases in cellular apoptosis | no effect | inhibited leukemia cell growth and proliferation | had an effect on cell proliferation | 70-90% | none of those kineses were activated | No significant effects | slightly lower | 35 | 14 | No significant effects | rescue of phosphorylation | 5 to 10 | high phosphorylation | at least two times higher
rhTPO: Full length recombinant human thrombopoietin (rhTPO) obtained from R&D Systems |  | activation | stimulated phosphorylation of STAT5 |  |  |  |  |  |  |  | high phosphorylation level |  |  |  | 8 |  |  |  | none or very little phosphorylation | 
